Data set [1] is described as follows: Metabolic stability of JP-1366 in dog hepatocytes. Type of data set: in vitro ADME. As to conditions: cryopreserved dog hepatocytes. As to the method: (§1) According to the manufacturer’s protocol, cryopreserved human, dog, monkey, mouse, and rat hepatocytes were purified and recovered. […] The metabolic reaction in each sample well was quenched by adding 120 μL of ice-cold acetonitrile.
(§2) Log-transformed relative responses of JP-1366 were plotted against incubation time, thereby obtaining the elimination slope (k) from the linear regression analysis. […] (1) t1 /2(min)=ln2/kelimination slope (2) Clint(mL/min/kg)=ln2/t1/2×mL incubation/hepatocyte (10^6 cells)×B×10^6 cells/g liver×A g liver/kg BW (3) Clhep(mL/min/kg)=Qh×Clint/Qh+Clint (4) HER=Clhep/Qh
(§3) Here, A means the liver weight parameters and has values of 25.7, 32, 30, 87.5, and 40; B means the cell number parameters and has values of 139, 215, 120, 135, and 117; Qh represents hepatic blood flow and has values of 20.7, 30.9, 43.6, 90, and 55.2 mL/min/kg for humans, dogs, monkeys, mice, and rats, respectively. Hepatic extraction ratios (HERs) of ≤0.25, 0.25–0.75, and ≥0.75 were regarded as low, moderate, and high, respectively.

The test system of data set [2] is dog hepatocytes. The data set can be described thus: Metabolic stability of JP-1366 in dog hepatocytes. Type of data set: in vitro ADME. The note with it: dog hepatocytes. How it is done: as §1, §2, §3
Data set [3] in a line: Metabolic stability of JP-1366 in monkey hepatocytes. Type of data set: in vitro ADME. As to conditions: cryopreserved monkey hepatocytes. How it is done: as §1, §2, §3
Data set [4] has as its system monkey hepatocytes. The description is as above. Type of data set: in vitro ADME. The note with it: monkey hepatocytes. How it is done: as §1, §2, §3
A short description of data set [5]: Metabolic stability of JP-1366 in mouse hepatocytes. Type of data set: in vitro ADME. The note with it: cryopreserved mouse hepatocytes. How it is done:
as §1, §2, §3

In data set [6] the test system is mouse hepatocytes. Described as above. Type of data set: in vitro ADME. The note with it: mouse hepatocytes. How it is done: as §1, §2, §3
The target in data set [7] is A3 (Homo sapiens, UniProt P0DMS8). Put plainly: BioPrint profiling, A3. The note with it: BioPrint profiling (Eurofins CEREP). The text has this:
(§4) However, the involvement of multiple metabolizing enzymes such as CYP1A2, CYP2C9/19, CYP1A2, and CYP2D6 with a minor contribution in the formation of M1, M6, M19, and M21 and the involvement of UGT1A1 and UGT2B7 in the formation of M15 from M1 and the formation of 23 metabolites might reduce the risk of drug–drug interaction potential mediated by a single metabolizing enzyme and a main metabolite. Additionally, it may reduce the intersubject variability caused by genetic variations in these metabolizing enzymes.

In data set [8] the target is α2B (Homo sapiens, UniProt P18089). The data set can be described thus: BioPrint profiling, α2B. The note with it: BioPrint profiling (Eurofins CEREP).
Sequence of α2B (P18089 whole entry): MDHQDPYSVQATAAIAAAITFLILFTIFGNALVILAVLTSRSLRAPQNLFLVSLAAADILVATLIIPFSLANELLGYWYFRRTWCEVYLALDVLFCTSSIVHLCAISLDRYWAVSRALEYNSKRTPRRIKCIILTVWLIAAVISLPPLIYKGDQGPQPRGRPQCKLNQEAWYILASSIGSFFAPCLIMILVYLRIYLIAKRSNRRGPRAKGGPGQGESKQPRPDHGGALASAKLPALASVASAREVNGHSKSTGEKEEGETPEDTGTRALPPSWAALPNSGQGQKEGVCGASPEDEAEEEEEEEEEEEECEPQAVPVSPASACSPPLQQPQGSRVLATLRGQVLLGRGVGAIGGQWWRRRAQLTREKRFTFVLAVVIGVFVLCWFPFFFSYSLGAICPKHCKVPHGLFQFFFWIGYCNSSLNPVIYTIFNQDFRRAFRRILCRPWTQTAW
Data set [9] has as its system Cl^- channel. The data set can be described thus: BioPrint profiling, Cl- channel. As to conditions: BioPrint profiling (Eurofins CEREP).
Data set [10] concerns the target MT1 (Homo sapiens, UniProt P48039). The data set can be described thus: BioPrint profiling, MT1. As to conditions: BioPrint profiling (Eurofins CEREP).
Excerpt: as §4

Data set [11] deals with histamine-stimulated gastric acid secretion. Set-up: method as in PMID 36504556. The note with it: Heidenhain pouch dog model; cited from earlier work.
The target of data set [12] is T1, human cDNA-expressed CYP1A2 (Homo sapiens, UniProt P05177).
T1 construct: purchased Corning Life Sciences
T1 sequence (P05177 1-516): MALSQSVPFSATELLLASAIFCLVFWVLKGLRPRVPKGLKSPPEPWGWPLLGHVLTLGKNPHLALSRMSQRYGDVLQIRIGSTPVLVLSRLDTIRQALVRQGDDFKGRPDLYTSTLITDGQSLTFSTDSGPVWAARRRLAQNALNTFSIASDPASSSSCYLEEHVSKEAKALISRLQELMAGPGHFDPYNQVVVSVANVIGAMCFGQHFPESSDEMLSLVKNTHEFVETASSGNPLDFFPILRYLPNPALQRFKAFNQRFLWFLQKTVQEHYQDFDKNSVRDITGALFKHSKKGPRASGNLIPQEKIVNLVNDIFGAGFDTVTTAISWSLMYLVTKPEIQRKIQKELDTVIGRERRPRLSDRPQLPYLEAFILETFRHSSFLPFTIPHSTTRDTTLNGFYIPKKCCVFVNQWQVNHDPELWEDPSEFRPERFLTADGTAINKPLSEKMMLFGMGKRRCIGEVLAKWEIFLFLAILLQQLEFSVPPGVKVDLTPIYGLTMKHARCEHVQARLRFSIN
The data set can be described thus: Enzyme kinetics of JP-1366 metabolism in cDNA-expressed CYP1A2. Type of data set: in vitro ADME. As to the method: (§5) The reaction was initiated by adding 5 μL of NADPH-generating system in triplicate, and the mixture was further incubated for 30 min at 37 °C in a shaking water bath.
(§6) The concentrations of the metabolites were quantitated, and their formation rates (pmol/mg protein/min) were calculated by dividing the amounts of metabolites formed from the incubation with human liver microsomes and human cDNA-expressed CYP or UGT enzymes by the incubation time.

Data set [13] has as its target T2, human cDNA-expressed CYP2C8 (Homo sapiens, UniProt P10632).
T2 construct: purchased Corning Life Sciences
T2 sequence (P10632 1-490): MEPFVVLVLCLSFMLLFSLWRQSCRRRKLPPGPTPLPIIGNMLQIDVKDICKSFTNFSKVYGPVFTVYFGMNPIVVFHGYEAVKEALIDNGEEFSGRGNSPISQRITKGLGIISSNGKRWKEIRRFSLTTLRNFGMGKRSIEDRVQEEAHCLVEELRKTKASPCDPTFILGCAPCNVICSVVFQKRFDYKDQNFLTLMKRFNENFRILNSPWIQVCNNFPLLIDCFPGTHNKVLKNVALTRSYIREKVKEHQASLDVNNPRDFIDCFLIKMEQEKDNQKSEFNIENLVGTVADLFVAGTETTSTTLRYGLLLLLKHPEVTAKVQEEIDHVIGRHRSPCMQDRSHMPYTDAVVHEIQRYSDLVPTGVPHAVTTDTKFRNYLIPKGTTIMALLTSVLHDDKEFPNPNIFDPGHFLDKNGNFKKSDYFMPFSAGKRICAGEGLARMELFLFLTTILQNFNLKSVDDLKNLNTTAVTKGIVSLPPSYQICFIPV
Put plainly: Enzyme kinetics of JP-1366 metabolism in cDNA-expressed CYP2C8. Type of data set: in vitro ADME. As to the method:
as §5, §6

For data set [14], the system named is human liver microsomes (HLM). Put plainly: Enzyme kinetics of JP-1366 metabolism in human liver microsomes. Type of data set: in vitro ADME. How it is done:
as §5, §6
A general note: Microsomes from liver hold many membrane-bound enzymes, among them those of drug oxidation.

Data set [15] deals with CYP3A4/5. Put plainly: Combined contribution of CYP3A4/5 to formation of major JP-1366 metabolites. Type of data set: in vitro ADME, human. As to conditions: sum of CYP3A4 and CYP3A5 contributions. How it is done:
as §5, §6

Setting [16] is: formation of the labelled metabolite from JP-1366, CYP1A2.

Sequence of MT1 (P48039 whole entry): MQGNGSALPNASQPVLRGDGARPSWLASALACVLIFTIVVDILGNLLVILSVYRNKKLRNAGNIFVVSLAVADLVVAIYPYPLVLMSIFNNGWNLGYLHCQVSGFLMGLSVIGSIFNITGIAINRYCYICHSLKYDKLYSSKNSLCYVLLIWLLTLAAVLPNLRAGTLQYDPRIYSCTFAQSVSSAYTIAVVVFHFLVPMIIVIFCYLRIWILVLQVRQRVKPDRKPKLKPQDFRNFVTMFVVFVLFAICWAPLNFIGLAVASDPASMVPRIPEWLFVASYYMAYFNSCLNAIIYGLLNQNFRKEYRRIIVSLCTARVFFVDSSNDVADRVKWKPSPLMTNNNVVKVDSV
Sequence of A3 (P0DMS8 whole entry): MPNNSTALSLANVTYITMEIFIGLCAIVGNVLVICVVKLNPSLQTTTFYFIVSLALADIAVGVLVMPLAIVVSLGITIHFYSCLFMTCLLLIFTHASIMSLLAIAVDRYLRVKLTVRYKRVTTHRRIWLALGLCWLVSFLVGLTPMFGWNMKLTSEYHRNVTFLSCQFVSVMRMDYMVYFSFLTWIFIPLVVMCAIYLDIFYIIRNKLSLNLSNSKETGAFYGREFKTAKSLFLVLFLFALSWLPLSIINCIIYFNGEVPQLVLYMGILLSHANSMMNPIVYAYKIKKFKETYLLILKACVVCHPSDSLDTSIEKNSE

One may read the CLint scaled as a measure of how fast metabolising enzymes remove a compound, apart from limits set by blood flow. What is called half-life is the time needed for the level to fall by half in the phase considered. In general, IC50 refers to the concentration that gives 50% inhibition. For the compound `Cc1cccc(C)c1CNc1cc(C(=O)N2CCC2)cn2c(C)c(C)nc12` [JP-1366, 1-azetidinyl(8-(((2,6-dimethylphenyl)methyl)amino)-2,3-dimethylimidazo(1,2-a)pyridin-6-yl)methanone], the CLint scaled at 1 µM in [1] (dog hepatocytes, scaled with physiological parameters) was 150 mL/min/kg; in data set [3] (monkey hepatocytes, scaled with physiological parameters), 110 mL/min/kg; in data set [5] (mouse hepatocytes, scaled with physiological parameters), 461 mL/min/kg. Further, the half-life at 1 µM was determined as 63.5 min in data set [1] (dog), 48.4 min in data set [3] (monkey) and 59.2 min in data set [5] (mouse). The CLhep in data set [2] amounted to 25.6 mL/min/kg; in [4] it was 31.1 mL/min/kg; in data set [6] it was 75.3 mL/min/kg. Besides, the HER in data set [2] was 0.83; in [4], 0.72; in data set [6] it was 0.84. Further, the IC50 in [7] stood at 2700 nM; in data set [8], 1200 nM; in [9], 910 nM; in data set [10], 870 nM. Moreover, the “inhibition of histamine-stimulated gastric acid secretion” value in [11] is “equal to or higher than vonoprazan”.
With `Cc1cccc(CO)c1CNc1cc(C(=O)N2CCC2)cn2c(C)c(C)nc12` [M1, azetidin-1-yl(8-((2-(hydroxymethyl)-6-methyl-benzyl)amino)-2,3-dimethylimidazo[1,2-a]pyridin-6-yl)methanone], the CLint in [12] (setting [16]) is given as 0.0014 μL/min/pmol CYP; in data set [13] (formation of the labelled metabolite from JP-1366, CYP2C8) it was 0.031 μL/min/pmol CYP. In data set [12] (setting [16]), the “n (Hill coefficient)” value was 0.6. Further, the “Contribution (%)” value in data set [12] (relative contribution of CYP1A2 to formation of the labelled metabolite) turned out to be 0.1%; in data set [13] (relative contribution of CYP2C8 to formation of the labelled metabolite) it was 3.7%. Further, the Ki in [13] (substrate inhibition kinetics, formation of the labelled metabolite, CYP2C8) was 197000 nM; in data set [14] (substrate inhibition kinetics, formation of the labelled metabolite, HLM) it was 96500 nM. Moreover, the Vmax in [14] (formation of the labelled metabolite from JP-1366, HLM) is on record as 826.1 pmol/min/mg protein. Also, in data set [15], the “contribution of CYP3A4/5 to formation of the metabolite from JP-1366” value was 85.9%.

The values above are taken from article PMC11207335, “In Vitro Metabolism and Transport Characteristics of Zastaprazan” (Pharmaceutics, 2024).
